Measurements published in ChEMBL document CHEMBL1201862, “PubChem BioAssay data set” (2004).
Activity calls are given as the source filed them.

Tests used:
Fatty acid synthase [1] = biological target: T1, Fatty acid synthase (Homo sapiens, UniProt P49327); assay: FAS thioesterase domain inhibitors, dose response, biochemical, kinetic fluorescence intensity (AID 624326); assay type: functional;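 also: rate of fluorescence rise from hydrolysis of a fluorogenic O-methyl fluorescein ester substrate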
Fatty acid synthase [2] = biological target: T1, Fatty acid synthase; assay: FAS thioesterase domain inhibitors, dose response, biochemical, endpoint fluorescence intensity, uHTS hits (AID 624327); assay type: functional;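 also: fluorescence from hydrolysis of an O-methyl fluorescein acyl ester substrate by the enzyme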
[3] = C. albicans growth with fluconazole, confirmation, fluorescence, retest (AID 2467); assay type: functional, cell-based
[4] = NIH-3T3 fibroblast cytotoxicity, dose response, cytotoxicity control, cell-based, fluorescence, Alamar Blue, secondary assay (AID 2327); assay type: functional;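 also: NIH-3T3 mouse fibroblasts cultured with fluconazole at 8 µg/mL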
Leucine aminopeptidase = biological target: T2, Leucine aminopeptidase (Plasmodium falciparum 3D7, UniProt Q8IL11); assay: P. falciparum M17LAP inhibitors, primary screen, biochemical, fluorogenic H-Leu-NHMec substrate, 1536-well (AID 1619); assay type: functional
T2 sequence (Q8IL11 whole entry): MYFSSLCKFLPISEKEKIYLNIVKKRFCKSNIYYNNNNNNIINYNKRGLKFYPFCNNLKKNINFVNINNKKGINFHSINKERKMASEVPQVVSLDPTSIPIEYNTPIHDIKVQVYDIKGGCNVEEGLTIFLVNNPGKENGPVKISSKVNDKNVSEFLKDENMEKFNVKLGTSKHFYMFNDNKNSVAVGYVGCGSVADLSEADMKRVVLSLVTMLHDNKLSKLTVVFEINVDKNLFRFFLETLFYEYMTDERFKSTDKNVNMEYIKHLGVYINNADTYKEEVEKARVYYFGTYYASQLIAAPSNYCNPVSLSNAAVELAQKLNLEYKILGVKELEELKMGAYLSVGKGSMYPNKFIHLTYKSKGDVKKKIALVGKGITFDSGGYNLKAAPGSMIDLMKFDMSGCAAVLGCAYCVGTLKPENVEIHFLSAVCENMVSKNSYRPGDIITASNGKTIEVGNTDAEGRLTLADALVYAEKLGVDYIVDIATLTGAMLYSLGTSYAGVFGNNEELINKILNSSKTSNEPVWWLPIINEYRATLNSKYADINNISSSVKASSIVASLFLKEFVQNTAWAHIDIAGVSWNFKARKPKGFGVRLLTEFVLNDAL

[5] = biological target: Glucose-6-phosphate 1-dehydrogenase (Homo sapiens, UniProt P11413); assay: human G6PD enzyme inhibitors, dose response, selectivity assay for P. falciparum G6PD inhibitor project, biochemical, fluorescence (AID 504792); assay type: functional
[6] = Luminescence Cell-Based Dose Response HTS to Identify Activators of Luciferase Translation or Activity in H4 […] Cells. [Related pubchem assays: 1829 (Project Summary), 1814 (Primary HTS)]; assay type: functional
[7] = Luminescence Cell-Based Dose Confirmation HTS to Identify Activators of 5'UTR Stem-Loop Driven Alpha-Synuclein mRNA Translation in H4 Neuroglioblastoma Cells. [Related pubchem assays: 1829 (Project Summary), 1814 (Primary HTS)]; assay type: functional
H4 = assay: Luminescence Cell-Based Dose Response HTS to Identify Activators of 5'UTR Stem-Loop Driven Prion Protein mRNA Translation in H4 Neuroglioblastoma Cells. [Related pubchem assays: 1829 (Project Summary), 1814 (Primary HTS)]; assay type: functional; details: Homo sapiens
[8] = control 3'UTR Renilla luciferase suppression, dose response, counter-screen for Shn3 inhibitor project, cell-based, Clone20-Shn3RL, cherry-picked (AID 624133); assay type: functional
[9] = Shn3 3'UTR reporter inhibitors, dose response, cell-based, Clone20 osteoblasts, firefly luciferase, cherry-picked (AID 624132); assay type: functional;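 also: firefly luciferase luminescence from reporter carrying the Shn3 3'UTR in osteoblasts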
[10] = biological target: T3, Sentrin-specific protease 7 (Homo sapiens, UniProt Q9BQF6); assay type: functional;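 also: Luminescence-based dose-response confirmation of ultra-high-throughput screening hits, measuring inhibition of SENP7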
T3 sequence (Q9BQF6 whole entry): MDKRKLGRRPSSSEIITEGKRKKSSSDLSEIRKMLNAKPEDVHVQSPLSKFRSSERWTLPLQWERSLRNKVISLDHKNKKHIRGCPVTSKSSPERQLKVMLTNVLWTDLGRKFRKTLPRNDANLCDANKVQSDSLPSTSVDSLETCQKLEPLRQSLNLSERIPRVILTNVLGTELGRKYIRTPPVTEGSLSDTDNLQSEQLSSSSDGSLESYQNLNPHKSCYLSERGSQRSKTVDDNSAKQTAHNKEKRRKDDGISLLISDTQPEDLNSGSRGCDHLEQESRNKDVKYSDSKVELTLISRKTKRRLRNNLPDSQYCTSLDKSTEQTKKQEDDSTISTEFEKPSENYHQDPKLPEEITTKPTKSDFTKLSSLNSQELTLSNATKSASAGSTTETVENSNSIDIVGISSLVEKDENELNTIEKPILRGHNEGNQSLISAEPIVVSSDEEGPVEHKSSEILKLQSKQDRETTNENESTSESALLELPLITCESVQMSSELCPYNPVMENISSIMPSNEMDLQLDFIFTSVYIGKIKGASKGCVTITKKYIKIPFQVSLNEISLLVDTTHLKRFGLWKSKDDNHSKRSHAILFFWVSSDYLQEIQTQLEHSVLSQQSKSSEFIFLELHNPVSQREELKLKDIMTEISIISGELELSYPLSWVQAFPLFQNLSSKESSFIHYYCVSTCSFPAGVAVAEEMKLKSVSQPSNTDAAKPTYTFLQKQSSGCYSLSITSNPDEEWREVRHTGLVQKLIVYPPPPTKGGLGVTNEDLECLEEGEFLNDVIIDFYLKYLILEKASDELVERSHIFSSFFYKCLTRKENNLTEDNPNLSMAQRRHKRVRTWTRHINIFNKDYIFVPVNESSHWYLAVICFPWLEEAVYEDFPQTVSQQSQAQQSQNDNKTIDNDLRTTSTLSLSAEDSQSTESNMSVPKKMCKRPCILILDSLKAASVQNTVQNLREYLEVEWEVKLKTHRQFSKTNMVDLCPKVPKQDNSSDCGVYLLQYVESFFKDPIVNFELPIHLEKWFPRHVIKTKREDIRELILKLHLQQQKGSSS

Caspase-3 = biological target: T4, Caspase-3 (Homo sapiens, UniProt P42574); assay type: functional;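 also: Dose-response selectivity test against caspase-3 for candidate inhibitors of sentrin-specific proteases (SENPs)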
T4 sequence (P42574 whole entry): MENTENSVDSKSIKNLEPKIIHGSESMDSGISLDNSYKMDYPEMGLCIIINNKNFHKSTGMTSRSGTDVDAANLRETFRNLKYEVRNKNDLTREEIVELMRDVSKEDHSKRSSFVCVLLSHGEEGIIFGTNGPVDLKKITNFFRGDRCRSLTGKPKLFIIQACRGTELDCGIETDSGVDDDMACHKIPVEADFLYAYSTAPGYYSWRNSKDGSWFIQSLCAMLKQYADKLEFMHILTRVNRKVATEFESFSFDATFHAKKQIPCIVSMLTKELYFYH

[11] = biological target: T5, Sentrin-specific protease 8 (Homo sapiens, UniProt Q96LD8); assay type: functional;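 also: luminescence read-out of SENP8 inhibition, dose-response confirmation following an ultra-high-throughput screen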
T5 sequence (Q96LD8 whole entry): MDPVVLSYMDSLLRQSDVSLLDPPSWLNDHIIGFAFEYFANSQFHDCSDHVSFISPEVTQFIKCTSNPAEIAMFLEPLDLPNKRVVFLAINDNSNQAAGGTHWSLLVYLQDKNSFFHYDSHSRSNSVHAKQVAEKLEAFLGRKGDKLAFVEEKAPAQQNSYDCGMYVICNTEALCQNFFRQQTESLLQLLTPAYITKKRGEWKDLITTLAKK

[12] = biological target: T6, Sentrin-specific protease 6 (Homo sapiens, UniProt Q9GZR1); assay type: functional;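 also: Luminescence-based dose-response confirmatory assay of SENP6 inhibition, following up an ultra-high-throughput screen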
T6 sequence (Q9GZR1 whole entry): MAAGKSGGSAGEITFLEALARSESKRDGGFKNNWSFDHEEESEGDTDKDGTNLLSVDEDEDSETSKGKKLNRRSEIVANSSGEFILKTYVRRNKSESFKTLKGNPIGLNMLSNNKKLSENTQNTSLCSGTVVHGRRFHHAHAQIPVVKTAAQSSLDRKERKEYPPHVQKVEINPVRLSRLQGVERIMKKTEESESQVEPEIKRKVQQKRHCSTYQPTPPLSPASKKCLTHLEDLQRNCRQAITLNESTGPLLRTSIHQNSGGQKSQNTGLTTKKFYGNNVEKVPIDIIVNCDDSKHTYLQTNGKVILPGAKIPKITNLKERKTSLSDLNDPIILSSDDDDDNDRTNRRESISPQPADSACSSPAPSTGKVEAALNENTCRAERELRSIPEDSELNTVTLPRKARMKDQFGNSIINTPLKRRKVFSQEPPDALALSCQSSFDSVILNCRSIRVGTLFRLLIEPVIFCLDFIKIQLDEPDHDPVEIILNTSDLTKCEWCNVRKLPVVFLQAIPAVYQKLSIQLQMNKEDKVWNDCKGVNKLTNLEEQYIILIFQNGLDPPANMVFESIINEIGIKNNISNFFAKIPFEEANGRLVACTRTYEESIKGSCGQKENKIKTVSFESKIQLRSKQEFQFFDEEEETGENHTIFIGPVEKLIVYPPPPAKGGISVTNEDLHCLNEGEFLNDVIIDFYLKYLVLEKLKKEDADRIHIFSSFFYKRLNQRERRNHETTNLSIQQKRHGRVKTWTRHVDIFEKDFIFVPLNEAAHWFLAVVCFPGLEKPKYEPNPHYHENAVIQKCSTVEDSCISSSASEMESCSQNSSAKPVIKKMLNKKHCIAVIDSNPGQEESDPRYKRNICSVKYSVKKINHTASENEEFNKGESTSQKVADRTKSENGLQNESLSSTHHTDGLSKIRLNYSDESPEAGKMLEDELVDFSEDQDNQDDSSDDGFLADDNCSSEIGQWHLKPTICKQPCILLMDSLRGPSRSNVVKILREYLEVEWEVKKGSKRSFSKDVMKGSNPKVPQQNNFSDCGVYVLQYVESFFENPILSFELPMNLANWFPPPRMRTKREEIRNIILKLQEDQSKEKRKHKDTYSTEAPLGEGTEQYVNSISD

Protein skinhead-1 = biological target: T7, Protein skinhead-1 (Caenorhabditis elegans, UniProt P34707); assay type: functional
T7 sequence (P34707 whole entry): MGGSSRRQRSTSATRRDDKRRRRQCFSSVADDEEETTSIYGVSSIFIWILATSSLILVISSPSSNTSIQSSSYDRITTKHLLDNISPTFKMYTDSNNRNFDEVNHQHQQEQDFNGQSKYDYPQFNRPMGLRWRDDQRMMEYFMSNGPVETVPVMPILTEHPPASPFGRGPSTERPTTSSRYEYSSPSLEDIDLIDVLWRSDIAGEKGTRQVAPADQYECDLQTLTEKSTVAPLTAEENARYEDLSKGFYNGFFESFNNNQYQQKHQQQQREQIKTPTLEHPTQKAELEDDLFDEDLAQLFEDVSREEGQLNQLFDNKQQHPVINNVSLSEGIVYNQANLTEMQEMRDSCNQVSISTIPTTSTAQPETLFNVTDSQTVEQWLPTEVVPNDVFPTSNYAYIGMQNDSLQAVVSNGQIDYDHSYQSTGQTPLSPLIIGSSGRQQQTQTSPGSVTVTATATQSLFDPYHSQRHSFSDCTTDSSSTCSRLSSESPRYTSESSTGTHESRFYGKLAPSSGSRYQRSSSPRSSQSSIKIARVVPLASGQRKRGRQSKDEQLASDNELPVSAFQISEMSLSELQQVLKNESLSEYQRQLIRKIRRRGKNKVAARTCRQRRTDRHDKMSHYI

T1 sequence (P49327 whole entry, the tested form may be a part): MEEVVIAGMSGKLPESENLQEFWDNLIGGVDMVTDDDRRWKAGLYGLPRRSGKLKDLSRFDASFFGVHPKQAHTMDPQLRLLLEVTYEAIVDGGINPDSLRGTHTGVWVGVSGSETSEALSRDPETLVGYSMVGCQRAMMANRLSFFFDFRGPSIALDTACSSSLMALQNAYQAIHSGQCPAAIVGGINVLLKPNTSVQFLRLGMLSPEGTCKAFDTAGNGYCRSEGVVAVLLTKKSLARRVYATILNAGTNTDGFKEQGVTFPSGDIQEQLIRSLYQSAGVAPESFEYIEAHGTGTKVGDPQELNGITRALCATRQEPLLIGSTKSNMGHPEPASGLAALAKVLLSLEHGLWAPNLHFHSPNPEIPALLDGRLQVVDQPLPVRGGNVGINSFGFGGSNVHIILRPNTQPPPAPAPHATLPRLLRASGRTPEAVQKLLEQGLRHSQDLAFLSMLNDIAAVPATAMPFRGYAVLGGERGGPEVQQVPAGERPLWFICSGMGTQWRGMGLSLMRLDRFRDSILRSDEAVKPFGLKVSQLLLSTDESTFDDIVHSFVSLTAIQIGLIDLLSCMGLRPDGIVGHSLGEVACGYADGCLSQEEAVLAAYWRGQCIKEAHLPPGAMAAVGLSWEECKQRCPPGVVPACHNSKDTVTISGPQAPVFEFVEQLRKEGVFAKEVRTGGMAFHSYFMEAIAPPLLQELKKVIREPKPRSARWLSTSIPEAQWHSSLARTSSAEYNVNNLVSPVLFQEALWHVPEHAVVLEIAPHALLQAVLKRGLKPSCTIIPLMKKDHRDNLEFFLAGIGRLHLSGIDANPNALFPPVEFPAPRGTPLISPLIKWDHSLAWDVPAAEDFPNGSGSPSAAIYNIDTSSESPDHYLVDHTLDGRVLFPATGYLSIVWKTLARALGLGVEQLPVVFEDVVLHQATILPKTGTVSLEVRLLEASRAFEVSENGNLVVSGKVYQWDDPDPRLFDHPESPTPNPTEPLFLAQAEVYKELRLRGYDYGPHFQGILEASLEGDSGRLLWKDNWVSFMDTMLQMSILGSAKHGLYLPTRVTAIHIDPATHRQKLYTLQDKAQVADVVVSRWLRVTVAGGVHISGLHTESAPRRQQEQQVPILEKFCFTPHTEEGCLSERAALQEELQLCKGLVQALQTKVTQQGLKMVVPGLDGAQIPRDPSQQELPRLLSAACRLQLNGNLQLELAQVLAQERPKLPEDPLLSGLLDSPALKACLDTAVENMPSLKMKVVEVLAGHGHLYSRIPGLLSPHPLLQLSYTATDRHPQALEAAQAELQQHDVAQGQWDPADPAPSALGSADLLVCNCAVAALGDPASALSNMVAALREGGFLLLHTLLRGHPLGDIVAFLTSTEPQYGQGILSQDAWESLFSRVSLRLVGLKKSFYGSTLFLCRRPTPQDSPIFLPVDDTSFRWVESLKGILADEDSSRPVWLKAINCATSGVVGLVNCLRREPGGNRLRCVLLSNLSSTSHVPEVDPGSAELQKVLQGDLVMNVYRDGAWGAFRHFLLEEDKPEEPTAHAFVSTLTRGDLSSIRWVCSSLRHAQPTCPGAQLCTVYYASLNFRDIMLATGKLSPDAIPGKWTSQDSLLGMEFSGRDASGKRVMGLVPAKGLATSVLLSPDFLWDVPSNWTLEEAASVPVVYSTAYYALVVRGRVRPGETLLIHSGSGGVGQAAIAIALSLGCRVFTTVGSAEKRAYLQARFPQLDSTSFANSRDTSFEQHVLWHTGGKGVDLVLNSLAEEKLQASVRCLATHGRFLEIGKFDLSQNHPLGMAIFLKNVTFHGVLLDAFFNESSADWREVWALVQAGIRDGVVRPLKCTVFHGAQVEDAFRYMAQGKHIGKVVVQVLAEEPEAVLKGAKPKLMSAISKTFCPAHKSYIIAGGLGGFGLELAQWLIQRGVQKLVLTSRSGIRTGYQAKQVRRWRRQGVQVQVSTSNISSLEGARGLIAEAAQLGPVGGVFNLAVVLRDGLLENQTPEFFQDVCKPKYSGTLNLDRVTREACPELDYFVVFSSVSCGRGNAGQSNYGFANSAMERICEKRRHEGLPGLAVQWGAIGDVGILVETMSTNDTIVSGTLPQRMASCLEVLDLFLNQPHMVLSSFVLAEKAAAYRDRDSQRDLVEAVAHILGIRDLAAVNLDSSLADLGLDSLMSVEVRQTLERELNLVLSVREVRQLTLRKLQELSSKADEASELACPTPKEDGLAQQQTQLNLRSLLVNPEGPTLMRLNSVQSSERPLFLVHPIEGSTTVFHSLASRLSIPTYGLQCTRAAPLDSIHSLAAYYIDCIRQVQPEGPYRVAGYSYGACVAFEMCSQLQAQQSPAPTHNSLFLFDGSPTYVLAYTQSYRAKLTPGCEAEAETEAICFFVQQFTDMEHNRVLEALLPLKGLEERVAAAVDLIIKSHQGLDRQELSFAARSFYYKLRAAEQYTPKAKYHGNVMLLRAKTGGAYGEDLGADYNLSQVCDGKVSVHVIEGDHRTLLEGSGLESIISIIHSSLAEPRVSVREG
Sequence of Glucose-6-phosphate 1-dehydrogenase (P11413 whole entry): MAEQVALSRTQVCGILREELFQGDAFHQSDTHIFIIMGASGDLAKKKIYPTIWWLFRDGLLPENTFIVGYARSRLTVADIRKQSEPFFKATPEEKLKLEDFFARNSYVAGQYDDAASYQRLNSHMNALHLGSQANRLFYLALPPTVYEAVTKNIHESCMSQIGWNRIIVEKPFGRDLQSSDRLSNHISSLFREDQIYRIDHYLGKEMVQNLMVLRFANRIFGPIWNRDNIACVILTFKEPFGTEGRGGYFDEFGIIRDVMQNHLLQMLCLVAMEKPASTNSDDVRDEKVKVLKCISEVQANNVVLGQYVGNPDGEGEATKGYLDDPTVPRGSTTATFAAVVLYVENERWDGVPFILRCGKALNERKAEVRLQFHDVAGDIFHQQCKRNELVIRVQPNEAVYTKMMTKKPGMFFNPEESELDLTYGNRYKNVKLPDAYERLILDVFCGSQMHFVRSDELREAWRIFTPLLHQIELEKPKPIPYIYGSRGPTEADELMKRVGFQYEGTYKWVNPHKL

O=C(/C=C/c1cccc([N+](=O)[O-])c1)NCCSCc1c(Cl)cccc1Cl
IC50 (Fatty acid synthase [1]): 3.92 µM (active) | IC50 (Fatty acid synthase [2]): 4.12 µM (active)

CCCCN(C(=O)/C=C/c1ccco1)c1c(N)n(Cc2ccccc2)c(=O)[nH]c1=O
EC50 [3]: > 38 µM (not active) | EC50 [4]: > 150 µM (inactive)

C[C@@]12C(=O)Nc3cc(F)c(F)cc3C(=O)N1[C@H]1c3ccccc3OC[C@@H]1[C@@H]2c1ccccc1
IC50 (Fatty acid synthase [1]): 8.59 µM (active) | IC50 (Fatty acid synthase [2]): 16.9 µM (active)

Cc1c(O)c(S(=O)(=O)c2ccccc2)c(=O)n(-c2ccccc2)c1-c1ccccc1
IC50 (Leucine aminopeptidase): 9.98 µM (active)

Cc1cccc(-c2nc3ccccc3c(=O)n2NC(=O)/C=C/c2ccc([N+](=O)[O-])cc2)c1
EC50 [3]: 0.101 µM (active) | EC50 [4]: > 150 µM (inactive)

Cc1ccc(SC(C)C(=O)Nc2ccc(S(=O)(=O)N3CCOCC3)cc2)cc1 (stereo not drawn)
IC50 (Leucine aminopeptidase): 21.2 µM (active)

CC(=O)c1cccc(-c2ccnc3c2CC(C(=O)Nc2ccc(F)c(Cl)c2)O3)c1 (stereo not drawn)
IC50 (Fatty acid synthase [1]): 7.91 µM (active) | IC50 (Fatty acid synthase [2]): 7.72 µM (active)

O=C(CSc1nc[nH]n1)Nc1ccccc1C(=O)O
IC50 (Leucine aminopeptidase): 35.6 µM (active)

CC(C)Sc1nnc(NC(=O)c2ccc3c(c2)OCO3)s1
IC50 [5]: 38.9 µM (inactive)

Cc1ccc(C2=NNC3(CCOC(C)(C)C3)S2)cc1 (stereo not drawn)
EC50 [6]: 30.5 µM (active) | EC50 [7]: 14 µM (active) | EC50 [3]: > 38 µM (not active) | EC50 [4]: > 160 µM (inactive) | EC50 (H4): 19.1 µM (active)

CC1Cc2ccccc2N1Cc1cccc(S(=O)(=O)N(C)C)c1 (stereo not drawn)
AC50 [8]: 23.9 µM (active) | AC50 [9]: 33 µM (active)

COc1ccc2nc(Nc3nc4cc5c(cc4s3)OCCO5)sc2c1
IC50 [10]: 5.81 µM (active) | IC50 (Caspase-3): 37 µM (active) | IC50 [11]: > 100 µM (inactive) | IC50 [12]: 66.6 µM (active)

OCCNc1nc(O)nc(O)c1/N=C/c1ccccc1
IC50 [5]: 14.2 µM (active)

Cc1ccc2oc(-c3ccco3)nc2c1
IC50 [10]: 5.87 µM (active) | IC50 (Caspase-3): 6.87 µM (active) | IC50 [11]: > 100 µM (inactive) | IC50 [12]: 21.3 µM (active)

O=c1oc(-c2ccccc2Br)nc2ccccc12
IC50 (Fatty acid synthase [1]): 13 µM (active) | IC50 (Fatty acid synthase [2]): 16.1 µM (active)

O=C(Cc1ccccc1)N/N=C/c1ccccc1Cl
EC50 [3]: > 38 µM (not active) | EC50 [4]: > 150 µM (inconclusive)

COc1ccc(CCNC(=O)c2ccc3c(SCC(=O)O)c4c(nc3c2)CCCC4)cc1OC
IC50 (Leucine aminopeptidase): 23.3 µM (active)

Cc1ccc(-c2nnc(NC(=O)c3ccc([N+](=O)[O-])o3)o2)c(C)c1
EC50 [3]: 1.85 µM (active) | EC50 [4]: > 160 µM (inconclusive)

Brc1ccc(-c2cnc(-c3cccs3)o2)cc1
IC50 [10]: 5.42 µM (active) | IC50 (Caspase-3): 29.5 µM (active) | IC50 [11]: 27.6 µM (active) | IC50 [12]: 15 µM (active) | IC50 (Protein skinhead-1): 19.7 µM (active)

CCOC(=O)CSc1nnc(-c2ccco2)n1-c1ccc(C)cc1
IC50 (Leucine aminopeptidase): 37 µM (active)
